From US9119777B2 (MICRODOSE THERAPEUTX, INC., priority 2008, dated 2015)
Like-named read-outs stand apart in the source and are kept apart here.

Experiments:
[1] = test system: mean arterial blood pressure and heart rate; assay: Mean arterial blood pressure and heart rate after pulmonary delivery; assay type: in vivo, guinea pig
Source text: (§1) Each point represents the mean value and the vertical bars show s.e. mean.

[2] = cited from earlier work
[3] = cited from earlier work; remark: listed apart in the source
[4] = test system: methacholine induced bronchoconstriction; assay: Methacholine induced bronchoconstriction after pulmonary (i.t.) dry powder delivery; assay type: in vivo, guinea pig
Source text: Each bar represents the mean value and the vertical lines show s.e. mean.
as §1

[5] = Pharmacokinetic profile following dry powder insufflation; assay type: in vivo, guinea pig; conditions: anaesthetized guinea pigs, dry powder insufflation of oxybutynin
[6] = test system: receptors in the salivary glands; conditions: cited from earlier work
[7] = in vivo; cited from earlier work

CCN(CC)CC#CCOC(=O)C(O)(c1ccccc1)C1CCCCC1 (racemic) [oxybutynin, 4-diethylaminobut-2-butynyl phenylcyclohexyl-glycolate]
Effect on arterial pressure and heart rate ([1]; guinea pig model of bronchoconstriction): without a prolonged significant effect on arterial pressure and heart rate
Influence on cardiovascular conditions, compared with Tiotropium ([1]; oxybutynin xinafoate, pulmonary, first 6 hours, anaesthetized guinea pigs): did not have as significant an influence on cardiovascular conditions
Oral half life ([2]; oral): 2.5 h
pKa [3]: 8.24
Bronchoprotective effect in guinea pig model of bronchoconstriction [4]: significantly bronchoprotective effect from 0.25 to 24 hours

CCNCC#CCOC(=O)C(O)(c1ccccc1)C1CCCCC1 (centres unmarked) [DEO, N-desethyloxybutynin]
Systemic levels of DEO resulting from pulmonary delivery [5]: below the LOQ of the detection method
Levels of DEO ([2]; oral therapy): 10 to 40 ng/mL
DEO circulating concentration relative to parent compound ([2]; oxybutynin ER, oral): approximately 4 times
DEO circulating concentration relative to parent compound ([2]; oxybutynin IR, oral): approximately 10 times
Levels of DEO ([2]; transdermal therapy): ~3 ng/mL
Affinity and binding duration at receptors in the salivary glands, compared with oxybutynin [6]: greater affinity and binding duration

CCC(=O)O[C@]1(C(=O)SCF)[C@H](C)C[C@H]2[C@@H]3C[C@H](F)C4=CC(=O)C=C[C@]4(C)[C@@]3(F)[C@@H](O)C[C@@]21C [fluticasone propionate]
Mean absorption time in the lungs [7]: 5 to 7 h

CC1(C)O[C@@H]2C[C@H]3[C@@H]4CCC5=CC(=O)C=C[C@]5(C)[C@@]4(F)[C@@H](O)C[C@]3(C)[C@]2(C(=O)CO)O1 [triamcinolone acetonide]
Mean absorption time in the lungs [7]: 2.9 h

O=C(O)c1ccc2ccccc2c1O [xinafoic acid]
pKa [3]: 2.7
